According to publication PMC10046369, “Low-Affinity/High-Selectivity Dopamine Transport Inhibition Sufficient to Rescue Cognitive Functions in the Aging Rat” (Biomolecules, 2023):

Experiments:
Assay in all cases: cell-based
Set-up in all cases: functional GPCR antagonist screen (Eurofins Cerep), percent inhibition of control agonist response
Conditions in all cases: antagonist effect, against control agonist; read-out: % Inhibition of Control Agonist Response, Mean
TP (TXA2/PGH2) (h) = target: T1, TP (TXA2/PGH2) (h) (Homo sapiens, UniProt P21731)
T1 construct: gene TBXA2R
T1 sequence (P21731 whole entry): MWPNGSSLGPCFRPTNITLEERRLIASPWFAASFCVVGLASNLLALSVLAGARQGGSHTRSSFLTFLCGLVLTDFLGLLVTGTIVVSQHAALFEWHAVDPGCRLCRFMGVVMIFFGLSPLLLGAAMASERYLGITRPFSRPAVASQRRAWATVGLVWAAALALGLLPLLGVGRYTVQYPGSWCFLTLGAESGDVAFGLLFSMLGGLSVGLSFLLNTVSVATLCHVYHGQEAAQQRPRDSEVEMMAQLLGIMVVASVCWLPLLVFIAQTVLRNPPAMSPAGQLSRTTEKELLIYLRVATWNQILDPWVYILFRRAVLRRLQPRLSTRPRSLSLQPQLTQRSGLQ

S1P5 (h) = target: T2, S1P5 (h) (Homo sapiens, UniProt Q9H228)
T2 construct: gene S1PR5
T2 sequence (Q9H228 whole entry): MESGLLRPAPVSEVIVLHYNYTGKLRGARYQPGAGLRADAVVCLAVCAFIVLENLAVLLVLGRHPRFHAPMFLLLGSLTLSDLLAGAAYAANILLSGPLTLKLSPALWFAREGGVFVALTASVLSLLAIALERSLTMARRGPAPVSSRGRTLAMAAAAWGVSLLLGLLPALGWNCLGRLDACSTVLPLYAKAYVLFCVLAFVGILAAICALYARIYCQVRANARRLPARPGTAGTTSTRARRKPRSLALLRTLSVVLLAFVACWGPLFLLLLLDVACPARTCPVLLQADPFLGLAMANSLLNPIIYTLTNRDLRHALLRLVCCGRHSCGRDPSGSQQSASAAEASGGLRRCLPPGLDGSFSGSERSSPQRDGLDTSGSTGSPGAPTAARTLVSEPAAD

PAR1 (h) = target: T3, PAR1 (h) (Homo sapiens, UniProt P25116)
T3 construct: gene F2R
T3 sequence (P25116 whole entry): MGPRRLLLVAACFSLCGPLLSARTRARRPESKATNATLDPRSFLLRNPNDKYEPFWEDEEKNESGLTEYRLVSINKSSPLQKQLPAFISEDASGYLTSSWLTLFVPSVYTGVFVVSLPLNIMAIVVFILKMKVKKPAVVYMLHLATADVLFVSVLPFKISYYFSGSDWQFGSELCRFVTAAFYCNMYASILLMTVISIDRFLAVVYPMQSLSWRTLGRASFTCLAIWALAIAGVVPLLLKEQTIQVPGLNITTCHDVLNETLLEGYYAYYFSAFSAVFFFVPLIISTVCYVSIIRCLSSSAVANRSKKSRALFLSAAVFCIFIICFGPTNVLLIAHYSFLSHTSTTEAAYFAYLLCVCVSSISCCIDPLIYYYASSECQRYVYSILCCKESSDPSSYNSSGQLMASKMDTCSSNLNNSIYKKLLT

M3 (h) = target: T4, M3 (h) (Homo sapiens, UniProt P20309)
T4 construct: gene CHRM3

LPA1(h) = target: T5, LPA1(h) (Homo sapiens, UniProt Q92633)
T5 construct: gene LPAR1

MC4 (h) = target: T6, MC4 (h) (Homo sapiens, UniProt P32245)
T6 construct: gene MC4R

NMU1 (h) = target: T7, NMU1 (h) (Homo sapiens, UniProt Q9HB89)
T7 construct: gene NMUR1

IP (PGI2) (h) = target: T8, IP (PGI2) (h) (Homo sapiens, UniProt P43119)
T8 construct: gene PTGIR

M2 (h) = target: T9, M2 (h) (Homo sapiens, UniProt P08172)
T9 construct: gene CHRM2

MT2 (ML1B) (h) = target: T10, MT2 (ML1B) (h) (Homo sapiens, UniProt P49286)
T10 construct: gene MTNR1B
T10 sequence (P49286 whole entry): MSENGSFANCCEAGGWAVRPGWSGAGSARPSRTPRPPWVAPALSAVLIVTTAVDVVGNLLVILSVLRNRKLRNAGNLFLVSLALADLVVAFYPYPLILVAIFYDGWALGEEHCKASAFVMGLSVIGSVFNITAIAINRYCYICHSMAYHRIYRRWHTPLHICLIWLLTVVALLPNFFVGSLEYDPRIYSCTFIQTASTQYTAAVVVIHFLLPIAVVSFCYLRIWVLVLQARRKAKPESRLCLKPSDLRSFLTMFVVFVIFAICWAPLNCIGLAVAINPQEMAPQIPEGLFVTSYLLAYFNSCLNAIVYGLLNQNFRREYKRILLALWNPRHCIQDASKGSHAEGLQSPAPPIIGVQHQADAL

M1 (h) = target: T11, M1 (h) (Homo sapiens, UniProt P11229)
T11 construct: gene CHRM1
T11 sequence (P11229 whole entry): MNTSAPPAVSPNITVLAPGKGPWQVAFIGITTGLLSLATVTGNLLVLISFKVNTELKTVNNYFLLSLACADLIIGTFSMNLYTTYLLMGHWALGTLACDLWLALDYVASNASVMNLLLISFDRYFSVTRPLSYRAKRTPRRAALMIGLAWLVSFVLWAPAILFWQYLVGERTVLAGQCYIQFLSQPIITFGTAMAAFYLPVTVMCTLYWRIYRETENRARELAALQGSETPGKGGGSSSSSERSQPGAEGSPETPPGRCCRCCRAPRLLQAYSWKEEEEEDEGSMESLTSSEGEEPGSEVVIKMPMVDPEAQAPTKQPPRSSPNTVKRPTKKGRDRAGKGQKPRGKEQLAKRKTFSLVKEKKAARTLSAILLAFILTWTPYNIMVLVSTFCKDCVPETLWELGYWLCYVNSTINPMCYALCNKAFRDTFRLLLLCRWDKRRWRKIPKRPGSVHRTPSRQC

S1P4 (h) = target: T12, S1P4 (h) (Homo sapiens, UniProt O95977)
T12 construct: gene S1PR4
T12 sequence (O95977 whole entry): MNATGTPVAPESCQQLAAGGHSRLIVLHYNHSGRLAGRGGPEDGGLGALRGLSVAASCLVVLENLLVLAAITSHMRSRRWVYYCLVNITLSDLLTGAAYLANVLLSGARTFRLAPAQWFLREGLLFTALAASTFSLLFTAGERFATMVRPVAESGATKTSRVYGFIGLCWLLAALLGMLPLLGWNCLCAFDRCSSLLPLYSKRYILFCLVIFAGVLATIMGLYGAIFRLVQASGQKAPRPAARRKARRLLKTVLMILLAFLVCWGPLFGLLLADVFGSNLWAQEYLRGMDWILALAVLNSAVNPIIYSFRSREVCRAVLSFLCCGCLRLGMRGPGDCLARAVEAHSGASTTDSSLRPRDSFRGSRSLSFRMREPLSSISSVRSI

LPA2 (h) = target: T13, LPA2 (h) (Homo sapiens, UniProt Q9HBW0)
T13 construct: gene LPAR2
T13 sequence (Q9HBW0 whole entry): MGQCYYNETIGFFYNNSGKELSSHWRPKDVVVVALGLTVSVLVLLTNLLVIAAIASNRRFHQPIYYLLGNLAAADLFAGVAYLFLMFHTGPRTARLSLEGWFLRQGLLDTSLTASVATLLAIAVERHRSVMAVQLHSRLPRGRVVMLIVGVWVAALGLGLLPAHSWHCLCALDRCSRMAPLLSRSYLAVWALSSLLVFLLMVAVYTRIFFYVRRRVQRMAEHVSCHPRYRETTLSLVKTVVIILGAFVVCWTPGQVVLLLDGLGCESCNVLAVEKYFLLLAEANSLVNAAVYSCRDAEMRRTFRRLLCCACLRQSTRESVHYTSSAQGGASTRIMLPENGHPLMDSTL

M4 (h) = target: T14, M4 (h) (Homo sapiens, UniProt P08173)
T14 construct: gene CHRM4
T14 sequence (P08173 whole entry): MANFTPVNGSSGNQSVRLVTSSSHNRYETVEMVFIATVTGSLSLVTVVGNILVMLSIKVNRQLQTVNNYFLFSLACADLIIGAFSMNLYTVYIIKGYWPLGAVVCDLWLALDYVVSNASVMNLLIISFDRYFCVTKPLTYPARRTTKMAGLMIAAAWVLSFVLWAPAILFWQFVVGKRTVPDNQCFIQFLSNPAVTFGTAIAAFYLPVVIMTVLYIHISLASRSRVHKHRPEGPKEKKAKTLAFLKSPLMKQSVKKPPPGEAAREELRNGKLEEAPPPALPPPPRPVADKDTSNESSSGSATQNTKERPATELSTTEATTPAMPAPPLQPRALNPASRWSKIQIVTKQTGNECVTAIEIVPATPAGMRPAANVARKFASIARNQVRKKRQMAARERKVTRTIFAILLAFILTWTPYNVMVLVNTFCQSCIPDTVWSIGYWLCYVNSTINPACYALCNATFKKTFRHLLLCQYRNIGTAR

μ (MOP) (h) = target: T15, μ (MOP) (h) (Homo sapiens, UniProt P35372)
T15 construct: gene OPRM1
T15 sequence (P35372 whole entry): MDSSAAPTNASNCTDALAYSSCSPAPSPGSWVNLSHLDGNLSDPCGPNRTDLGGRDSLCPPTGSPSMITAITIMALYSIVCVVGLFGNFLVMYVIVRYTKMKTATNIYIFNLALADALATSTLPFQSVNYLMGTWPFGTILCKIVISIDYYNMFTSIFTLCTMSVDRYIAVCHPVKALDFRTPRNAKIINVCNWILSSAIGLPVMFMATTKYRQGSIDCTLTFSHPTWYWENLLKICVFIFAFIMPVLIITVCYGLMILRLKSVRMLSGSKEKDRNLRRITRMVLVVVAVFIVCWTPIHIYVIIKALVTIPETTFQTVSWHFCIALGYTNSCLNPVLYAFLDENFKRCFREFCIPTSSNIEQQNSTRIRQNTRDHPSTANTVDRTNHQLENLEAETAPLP

NPBW1 (h) = target: T16, NPBW1 (h) (Homo sapiens, UniProt P48145)
T16 construct: gene NPBWR1

MRGX1 / MRGPRX1 (h) = MRGX1 / MRGPRX1 (h) (Homo sapiens, UniProt Q96LB2)
PAR2 (h) = target: T17, PAR2 (h) (Homo sapiens, UniProt P55085)
T17 construct: gene F2RL1

PTH1 (h) = target: T18, PTH1 (h) (Homo sapiens, UniProt Q03431)
T18 construct: gene PTH1R

EP2 (h) = target: T19, EP2 (h) (Homo sapiens, UniProt P43116)
T19 construct: gene PTGER2

OX2 (h) = target: T20, OX2 (h) (Homo sapiens, UniProt O43614)
T20 construct: gene HCRTR2
T20 sequence (O43614 whole entry): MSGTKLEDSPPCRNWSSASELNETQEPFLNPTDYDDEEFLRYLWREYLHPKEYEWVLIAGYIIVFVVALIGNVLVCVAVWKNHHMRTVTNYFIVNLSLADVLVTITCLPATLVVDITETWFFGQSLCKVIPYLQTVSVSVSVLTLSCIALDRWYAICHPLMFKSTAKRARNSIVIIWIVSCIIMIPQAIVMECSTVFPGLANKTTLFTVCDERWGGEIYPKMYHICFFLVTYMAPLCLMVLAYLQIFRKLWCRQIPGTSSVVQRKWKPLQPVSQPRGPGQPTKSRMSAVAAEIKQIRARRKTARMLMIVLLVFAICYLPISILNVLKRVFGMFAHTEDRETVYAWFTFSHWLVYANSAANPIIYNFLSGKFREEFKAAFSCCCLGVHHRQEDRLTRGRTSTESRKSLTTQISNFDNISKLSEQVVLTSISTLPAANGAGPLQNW

S1P2 (h) = target: T21, S1P2 (h) (Homo sapiens, UniProt O95136)
T21 construct: gene S1PR2
T21 sequence (O95136 whole entry): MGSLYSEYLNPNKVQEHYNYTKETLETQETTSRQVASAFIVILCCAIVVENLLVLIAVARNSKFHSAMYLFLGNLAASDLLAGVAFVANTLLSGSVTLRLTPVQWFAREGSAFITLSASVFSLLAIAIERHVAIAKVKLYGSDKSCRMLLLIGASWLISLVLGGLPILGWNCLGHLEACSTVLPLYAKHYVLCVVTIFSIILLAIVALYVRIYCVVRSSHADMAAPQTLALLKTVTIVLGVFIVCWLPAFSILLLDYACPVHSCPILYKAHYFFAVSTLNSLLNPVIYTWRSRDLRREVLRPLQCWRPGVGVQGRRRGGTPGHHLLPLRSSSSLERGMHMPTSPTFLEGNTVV

NK3 (h) = target: T22, NK3 (h) (Homo sapiens, UniProt P29371)
T22 construct: gene TACR3
T22 sequence (P29371 whole entry): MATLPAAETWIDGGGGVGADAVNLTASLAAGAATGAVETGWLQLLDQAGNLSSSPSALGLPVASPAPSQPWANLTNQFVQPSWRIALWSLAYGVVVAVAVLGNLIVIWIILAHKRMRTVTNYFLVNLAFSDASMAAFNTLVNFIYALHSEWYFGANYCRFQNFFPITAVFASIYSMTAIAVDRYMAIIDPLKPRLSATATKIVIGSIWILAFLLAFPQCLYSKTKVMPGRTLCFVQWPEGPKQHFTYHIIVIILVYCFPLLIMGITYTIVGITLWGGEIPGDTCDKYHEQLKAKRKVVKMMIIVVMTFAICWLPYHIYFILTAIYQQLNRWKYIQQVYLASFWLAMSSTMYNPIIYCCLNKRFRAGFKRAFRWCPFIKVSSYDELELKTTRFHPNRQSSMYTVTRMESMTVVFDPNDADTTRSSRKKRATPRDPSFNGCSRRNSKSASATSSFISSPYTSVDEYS

MCH1 (h) = target: T23, MCH1 (h) (Homo sapiens, UniProt Q99705)
T23 construct: gene MCHR1

SMILES: [O-][S@@+](Cc1cncs1)C(c1ccccc1)c1ccccc1 [S-CE-123, (S)-5-((Benzhydrylsulfinyl)Methyl)Thiazole]
- inhibition at 2.8 µM (TP (TXA2/PGH2) (h)): 2.5%
- inhibition at 2.8 µM (S1P5 (h)): 3.7%
- inhibition at 2.8 µM (PAR1 (h)): 2.1%
- inhibition at 2.8 µM (M3 (h)): 0.8%
- inhibition at 2.8 µM (LPA1(h)): 4.4%
- inhibition at 2.8 µM (MC4 (h)): 2.3%
- inhibition at 2.8 µM (NMU1 (h)): -21.3%
- inhibition at 2.8 µM (IP (PGI2) (h)): 16.3%
- inhibition at 2.8 µM (M2 (h)): -9.2%
- inhibition at 2.8 µM (MT2 (ML1B) (h)): 6.2%
- inhibition at 2.8 µM (M1 (h)): 2.6%
- inhibition at 2.8 µM (S1P4 (h)): -14.6%
- inhibition at 2.8 µM (LPA2 (h)): -10.9%
- inhibition at 2.8 µM (M4 (h)): -8.5%
- inhibition at 2.8 µM (μ (MOP) (h)): 5%
- inhibition at 2.8 µM (NPBW1 (h)): -1.9%
- inhibition at 2.8 µM (MRGX1 / MRGPRX1 (h)): 4.9%
- inhibition at 2.8 µM (PAR2 (h)): -19.4%
- inhibition at 2.8 µM (PTH1 (h)): -10.6%
- inhibition at 2.8 µM (EP2 (h)): 0.7%
- inhibition at 2.8 µM (OX2 (h)): 4.2%
- inhibition at 2.8 µM (S1P2 (h)): -5.2%
- inhibition at 2.8 µM (NK3 (h)): -5.1%
- inhibition at 2.8 µM (MCH1 (h)): -0.9%
